Reference: the supplement of paper PMC10307832

Tests used:
Assay in all cases: relative viability (nuclei count vs DMSO), 5 days (fraction); higher = more cells survive
[1] = compound: CCOC(=O)CCNc1cc(N2CCc3ccccc3CC2)nc(-c2ccccn2)n1 [GSK-J4] + CC(C)C[C@H](NC(=O)[C@H](Cc1ccccc1)NC(=O)c1cnccn1)B(O)O [Bortezomib] (partner 0.002 µM)
Procedure, shortened: (§1)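 After 5 days of treatment, lung cancer cells in 1536-well plates were fixed and stained in a single step (final 0.05% Triton X-100, 1% formaldehyde, 1 ug/ml Hoechst) and their nuclei counted on 4× images. Treatment had been applied by pin tool the day after seeding as one drug alone or as a fixed anchor-drug dose with five library-drug doses (not always all listed) in √10 steps. Relative viability is the nuclei count of treated wells divided by that of vehicle wells, and values are medians of duplicate plates.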

[2] = compound: CCOC(=O)CCNc1cc(N2CCc3ccccc3CC2)nc(-c2ccccn2)n1 [GSK-J4] + C[C@]1(O)C[C@@H](c2nc(-c3ccc4ccc(-c5ccccc5)nc4c3)c3c(N)nccn32)C1 [Linsitinib] (partner 1 µM)
Procedure, shortened: as §1

[3] = compound: CN1CCC(CC1)OC2=CC(=C(C=C2)NC3=NC=C4C(=N3)N(C(=O)N4C)C5CCCC5)OC [AZ3146] + CC(=O)c1c(C)c2cnc(Nc3ccc(N4CCNCC4)cn3)nc2n(C2CCCC2)c1=O [Palbociclib] (partner 0.5 µM)
Procedure, shortened: as §1

[4] = compound: CN1CCC(CC1)OC2=CC(=C(C=C2)NC3=NC=C4C(=N3)N(C(=O)N4C)C5CCCC5)OC [AZ3146] + Cc1nc(Nc2ncc(C(=O)Nc3c(C)cccc3Cl)s2)cc(N2CCN(CCO)CC2)n1 [Dasatinib] (partner 0.075 µM)
Procedure, shortened: as §1

Cell Line | relative viability ([1]; first compound 0.5 µM) | relative viability ([1]; first compound 1.581 µM) | relative viability ([1]; first compound 5 µM) | relative viability ([1]; first compound 15.81 µM) | relative viability ([1]; first compound 50 µM) | relative viability ([2]; first compound 0.5 µM) | relative viability ([2]; first compound 1.581 µM) | relative viability ([2]; first compound 5 µM) | relative viability ([2]; first compound 15.81 µM) | relative viability ([2]; first compound 50 µM) | relative viability ([3]; first compound 0.08 µM) | relative viability ([3]; first compound 0.253 µM) | relative viability ([3]; first compound 0.8 µM) | relative viability ([3]; first compound 2.53 µM) | relative viability ([3]; first compound 8 µM) | relative viability ([4]; first compound 0.08 µM) | relative viability ([4]; first compound 0.253 µM) | relative viability ([4]; first compound 0.8 µM) | relative viability ([4]; first compound 2.53 µM) | relative viability ([4]; first compound 8 µM)
LCLC-103H | 1.05 | 0.96 | 1.02 | 0.899 | 1.07 | 0.914 | 0.978 | 1.12 | 1.06 | 1.04 | 0.415 | 0.458 | 0.495 | 0.446 | 0.444 | 0.532 | 0.354 | 0.472 | 0.551 | 0.422
LOU-NH91 | 0.525 | 0.497 | 0.426 | 0.467 | 0.621 | 1 | 0.928 | 0.804 | 0.817 | 1 | 0.513 | 0.582 | 0.512 | 0.539 | 0.537 | 0.581 | 0.485 | 0.632 | 0.602 | 0.566
LU99A | 1.07 | 0.777 | 0.777 | 1.21 | 0.632 | 0.515 | 0.53 | 0.565 | 0.404 | 0.457 | – | 0.464 | 0.428 | 0.377 | 0.455 | 0.645 | 0.528 | 0.464 | 0.56 | 0.606
LXF-289 | 0.952 | 0.866 | 1 | 0.994 | 1.02 | 0.973 | 0.912 | 0.956 | 0.915 | 0.893 | 0.574 | 0.603 | 0.564 | 0.595 | 0.579 | 0.276 | 0.241 | 0.172 | 0.227 | 0.18
NCI-H23 | 0.987 | – | 0.791 | 1.03 | 0.969 | 0.557 | – | 0.694 | 0.54 | 0.594 | 0.503 | 0.515 | 0.494 | 0.513 | 0.473 | 0.894 | 0.767 | 0.612 | 0.756 | 0.97
NCI-H322M | 1.3 | 1.03 | 1.67 | 1.11 | 1.02 | 0.858 | 0.929 | 0.955 | 0.828 | 0.825 | 0.475 | 0.465 | 0.461 | 0.518 | 0.471 | 0.236 | 0.248 | 0.24 | 0.251 | 0.285
NCI-H441 | 0.749 | 0.497 | 0.401 | 0.538 | 0.348 | 0.664 | 0.325 | 0.602 | 0.532 | 0.511 | 0.216 | 0.199 | 0.211 | 0.265 | 0.204 | 0.636 | 0.68 | 0.922 | 0.497 | 0.536
NCI-H460 | 1.02 | 0.888 | 1 | 1.04 | 0.985 | 0.821 | 0.584 | 0.836 | 0.691 | 0.581 | 0.088 | 0.139 | 0.139 | 0.161 | 0.0649 | 0.463 | 0.485 | 0.484 | 0.463 | 0.476
NCI-H520 | 0.553 | 0.316 | 0.299 | 0.509 | 0.556 | 0.829 | 0.939 | 1.15 | 0.891 | 0.81 | 0.237 | 0.216 | 0.22 | 0.237 | 0.195 | 0.166 | 0.171 | 0.197 | 0.592 | 0.19
NCI-H647 | 0.912 | 0.862 | 0.652 | 1.12 | 0.982 | 0.964 | 0.993 | 1.03 | 1.2 | 0.79 | 0.356 | 0.364 | 0.357 | 0.346 | 0.367 | 0.214 | 0.186 | 0.178 | 0.216 | 0.138
NCI-H650 | 0.76 | 0.525 | 0.495 | 0.663 | 0.663 | 0.733 | 0.672 | 0.537 | 0.723 | 0.592 | 0.303 | 0.343 | 0.234 | 0.363 | 0.27 | 0.351 | 0.428 | 0.435 | 0.482 | 0.491
NCI-H661 | 0.896 | 0.852 | 0.791 | 0.589 | 0.583 | 0.549 | 0.565 | 0.608 | 0.425 | 0.36 | 0.443 | 0.429 | 0.42 | 0.429 | 0.4 | 0.867 | 0.859 | 0.927 | 0.765 | 0.459
NCI-H727 | 0.934 | – | 1.19 | 0.954 | 0.35 | 0.245 | – | 0.568 | 0.267 | 0.222 | 0.663 | 0.624 | 0.675 | 0.627 | 0.659 | 0.418 | 0.378 | 0.324 | 0.362 | 0.384
NCI-H838 | 0.978 | 0.483 | – | 0.769 | 0.792 | 0.973 | 0.982 | – | 0.999 | 1 | 0.219 | 0.202 | 0.205 | 0.239 | 0.161 | 0.408 | 0.303 | 0.269 | 0.331 | 0.269
NCI-H1355 | 1.23 | 1.04 | 1.11 | 1.16 | 1.16 | 0.714 | 0.742 | 0.871 | 0.809 | 0.816 | 0.396 | 0.402 | 0.405 | 0.406 | 0.388 | 0.654 | 0.644 | 0.767 | 0.68 | 0.726
NCI-H1437 | 0.537 | 0.328 | 0.435 | 0.504 | 0.209 | 0.928 | 0.993 | 0.988 | 0.881 | 0.222 | 0.311 | 0.29 | 0.303 | 0.314 | 0.27 | 0.327 | 0.373 | 0.447 | 0.368 | 0.51
